Measurements as given in ChEMBL document CHEMBL1147201, “Structural requirements of HDAC inhibitors: SAHA analogs functionalized adjacent to the hydroxamic acid” (Bioorg Med Chem Lett, 2007).

Target: Histone deacetylase
Assay: Inhibition of HDAC by fluorescent assay
Type: protein assay, Homo sapiens

SMILES	IC50 [µM]
CCCC(CCCCCC(=O)Nc1ccccc1)C(=O)NO (configuration not stated)	154
C#CCC(CCCCCC(=O)Nc1ccccc1)C(=O)NO (configuration not stated)	87
CC(CCCCCC(=O)Nc1ccccc1)C(=O)NO (configuration not stated)	134
C=CCC(CCCCCC(=O)Nc1ccccc1)C(=O)NO (configuration not stated)	144

Other lines, results leading:

IC50 [µM]	SMILES
72	CCCCC(CCCCCC(=O)Nc1ccccc1)C(=O)NO (configuration not stated)
449	CCC(CCCCCC(=O)Nc1ccccc1)C(=O)NO (configuration not stated)
226	O=C(CCCCCC(Cc1ccccc1)C(=O)NO)Nc1ccccc1 (configuration not stated)
